pKd: −log10 of the molar value.
How the values were obtained:
PPARγ = biological target: T1, PPARγ (Homo sapiens, UniProt P37231); assay: PPAR transactivation test in crossed curves (HeLN luciferase reporter), PPARγ; assay type: cell-based; details: HeLN cells stably transfected with Gal-hPPARγ and luciferase reporter; crossed curves vs reference agonist, Schild regression; read-out: PPAR gamma Kd app
T1 sequence (P37231 238-505 limits assumed): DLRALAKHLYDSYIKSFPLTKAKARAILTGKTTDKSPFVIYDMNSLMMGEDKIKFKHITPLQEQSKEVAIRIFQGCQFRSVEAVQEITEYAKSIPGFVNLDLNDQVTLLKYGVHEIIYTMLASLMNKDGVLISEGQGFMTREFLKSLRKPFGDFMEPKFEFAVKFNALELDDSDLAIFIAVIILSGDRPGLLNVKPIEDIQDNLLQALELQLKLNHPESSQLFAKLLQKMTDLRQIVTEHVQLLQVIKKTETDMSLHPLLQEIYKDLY
Experimental: (§1) Activation of the PPAR receptors by an agonist (activator) in HeLN cells leads to the expression of a reporter gene, luciferase, which, in the presence of a substrate, generates light. The modulation of the PPAR receptors is measured by quantifying the luminescence produced after incubation of the cells in the presence of a reference agonist. The ligands will displace the agonist from its site. The activity is measured by quantifying the light produced. This measurement makes it possible to determine the modulating activity of the compounds according to the invention by determining the constant representing the affinity of the molecule for the PPAR receptor. This value, which can fluctuate according to the basal activity and expression of the receptor, is called apparent Kd (KdApp, nM).
(§2) To determine this constant, “crossed curves” of the test product versus a reference agonist are carried out in a 96-well plate: 10 concentrations of the test product plus a 0 concentration are arranged in rows, and 7 concentrations of the agonist plus a 0 concentration are arranged in columns. This is 88 measurement points for 1 product and 1 receptor. The 8 remaining wells are used for repeatability controls.
(§3) Measurements are also carried out for the total agonist controls with the same products.
(§4) The HeLN cell lines used are stable transfectants containing the plasmids ERE-βGlob-Luc-SV-Neo (reporter gene) and PPAR (α, δ, γ) Gal-hPPAR. These cells are sown in 96-well plates at a rate of 10 000 cells per well in 100 μl of DMEM medium without phenol red and supplemented with 10% of delipidated calf serum. The plates are then incubated at 37° C., 7% CO2 for 16 hours.
(§5) The various dilutions of the test products and of the reference ligand are added at a rate of 5 μl per well. The plates are then incubated for 18 hours at 37° C., 7% CO2.
(§6) The culture medium is removed by inverting and 100 μl of a 1:1 mixture PBS/Luciferine is added to each well. After 5 minutes, the plates are read with the luminescence reader.

PPARα = biological target: T2, PPARα (Homo sapiens, UniProt Q07869); assay: PPAR transactivation test in crossed curves (HeLN luciferase reporter), PPARα; assay type: cell-based; details: HeLN cells stably transfected with Gal-hPPARα and luciferase reporter; crossed curves vs reference agonist, Schild regression; read-out: PPAR alpha Kd app
T2 sequence (Q07869 200-468 limits assumed): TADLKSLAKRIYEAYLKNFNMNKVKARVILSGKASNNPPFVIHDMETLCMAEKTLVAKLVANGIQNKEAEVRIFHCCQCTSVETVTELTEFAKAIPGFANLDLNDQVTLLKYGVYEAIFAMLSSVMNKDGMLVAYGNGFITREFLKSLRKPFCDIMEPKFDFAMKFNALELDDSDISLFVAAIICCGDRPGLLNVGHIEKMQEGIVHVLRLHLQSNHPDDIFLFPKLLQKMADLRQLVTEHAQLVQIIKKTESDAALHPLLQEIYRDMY
Experimental: as §1, §2, §3, §4, §5, §6
(§7) These AC50 are used for calculating the Schild regression by plotting a straight line corresponding to the Schild equation (“Quantitation in receptor pharmacology” Terry P. Kenakin, Receptors and Channels, 2001, 7, 371-385) which provides the values of Kd app (in nM).

PPARδ = biological target: T3, PPARδ (Homo sapiens, UniProt Q03181); assay: PPAR transactivation test in crossed curves (HeLN luciferase reporter), PPARδ; assay type: cell-based; details: HeLN cells stably transfected with Gal-hPPARδ and luciferase reporter; crossed curves vs reference agonist, Schild regression; read-out: PPARs delta Kd app
T3 sequence (Q03181 171-441 limits assumed): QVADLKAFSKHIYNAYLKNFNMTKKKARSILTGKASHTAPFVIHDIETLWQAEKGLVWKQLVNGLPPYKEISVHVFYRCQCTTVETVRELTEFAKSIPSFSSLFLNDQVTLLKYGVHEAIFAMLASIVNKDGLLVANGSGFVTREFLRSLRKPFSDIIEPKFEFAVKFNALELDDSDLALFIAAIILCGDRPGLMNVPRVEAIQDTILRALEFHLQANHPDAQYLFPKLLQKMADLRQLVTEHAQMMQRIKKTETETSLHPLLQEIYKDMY
Experimental: as §1, §2, §3, §4, §5, §6, §7

With `CCCCS(=O)(=O)Oc1ccc(CCOc2ccc(/C=C(\OCC)C(=O)O)cc2OC)cc1` [Example 1, (Z)-3-(4-{2-[4-(butane-1-sulfonyloxy)-phenyl]-ethoxy}-3-methoxy-phenyl)-2-ethoxy-acrylic acid] as the molecule, how does the pKd (PPARγ) read?
Its pKd is 8.10.

And the melting point?
The melting point was 94 °C.

With `CCCCOc1cc(/C=C(\OCC)C(=O)O)ccc1CCCc1ccc(OS(=O)(=O)CCCC)c(OC)c1` [Example 3, (Z)-3-(4-{3-[4-(butane-1-sulfonyloxy)-3-methoxy-phenyl]-propyl}-3-butoxy-phenyl)-2-ethoxy-acrylic acid] as the molecule, how does the pKd (PPARα) read?
Its pKd is 7.22.

What about the pKd (PPARδ) of the same molecule?
Its pKd is 6.60.

What about the pKd (PPARγ) of the same molecule?
The pKd was 7.82.

What does the source list for `CCCCOc1cc(/C=C(\OCC)C(=O)O)ccc1OCCc1ccc(OS(=O)(=O)CCCC)cc1` [Example 6, (Z)-3-(4-{2-[4-(butane-1-sulfonyloxy)-phenyl]-ethoxy}-3-butoxy-phenyl)-2-ethoxy-acrylic acid]?
pKd (PPARα): 6.92; pKd (PPARγ): 8.70

With `CCCCOc1cc(/C=C(\OCC)C(=O)O)ccc1OCCc1ccc(OS(C)(=O)=O)c(OC)c1` [Example 7, (Z)-3-{3-butoxy-4-[2-(4-methanesulfonyloxy-3-methoxy-phenyl)-ethoxy]-phenyl}-2-ethoxy-acrylic acid] as the molecule, how does the pKd (PPARα) read?
The pKd was 6.60.

What about the pKd (PPARγ) of the same molecule?
Its pKd is 7.82.

What about the melting point of the same molecule?
The melting point was 97 °C.

With `CCCCOc1cc(/C=C(\OCC)C(=O)O)ccc1OCCc1ccc(OS(=O)(=O)CCCC)c(OC)c1` [Example 8, (Z)-3-(4-{2-[4-(butane-1-sulfonyloxy)-3-methoxy-phenyl]-ethoxy}-3-butoxy-phenyl)-2-ethoxy-acrylic acid] as the molecule, how does the pKd (PPARα) read?
The pKd was 6.92.

What about the pKd (PPARδ) of the same molecule?
The pKd was 5.70.

And the pKd (PPARγ)?
Its pKd is 7.82.

With `CCCCOc1cc(/C=C(\OCC)C(=O)O)ccc1OCCc1ccc(OS(=O)(=O)CCCC)cc1OC` [Example 9, (Z)-3-(4-{2-[4-(butane-1-sulfonyloxy)-2-methoxy-phenyl]-ethoxy}-3-butoxy-phenyl)-2-ethoxy-acrylic acid] as the molecule, how does the pKd (PPARα) read?
Its pKd is 5.70.

What about the pKd (PPARγ) of the same molecule?
Its pKd is 8.10.

With `CCCCOc1cc(/C=C(\OCC)C(=O)O)ccc1OCCc1ccc(OS(C)(=O)=O)cc1OC` [Example 10, (Z)-3-{3-butoxy-4-[2-(4-methanesulfonyloxy-2-methoxy-phenyl)-ethoxy]-phenyl}-2-ethoxy-acrylic acid] as the molecule, how does the melting point read?
Its melting point is 112 °C.

With `CCCCOc1cc(/C=C(\OCC)C(=O)O)ccc1OCCc1ccc(OCC)c(F)c1` [Example 11, (Z)-3-{3-butoxy-4-[2-(4-ethoxy-3-fluoro-phenyl)-ethoxy]-phenyl}-2-ethoxy-acrylic acid] as the molecule, how does the melting point read?
Its melting point is 119 °C.

With `CCCCCOc1ccc(CCOc2ccc(/C=C(\OCC)C(=O)O)cc2OCCCC)cc1F` [Example 12, (Z)-3-{3-butoxy-4-[2-(3-fluoro-4-pentyloxy-phenyl)-ethoxy]-phenyl}-2-ethoxy-acrylic acid] as the molecule, how does the melting point read?
Its melting point is 102 °C.

Which results are given for `CCCCOc1cc(/C=C(\OCC)C(=O)O)ccc1OCCc1ccc(OS(=O)(=O)CCCC)c(F)c1` [Example 13, (Z)-3-(4-{2-[4-(butane-1-sulfonyloxy)-3-fluoro-phenyl]-ethoxy}-3-butoxy-phenyl)-2-ethoxy-acrylic acid]?
pKd (PPARα): 6.60; pKd (PPARδ): 5.70; pKd (PPARγ): 8.10; melting point: 99 °C

For `CCCCCOc1ccc(CCOc2ccc(/C=C(\OCC)C(=O)O)cc2OCCCC)cc1Cl` [Example 15, (Z)-3-{3-butoxy-4-[2-(3-chloro-4-pentyloxy-phenyl)-ethoxy]-phenyl}-2-ethoxy-acrylic acid], which melting point is on record?
Its melting point is 95 °C.

With `CCCCOc1cc(/C=C(\OCC)C(=O)O)ccc1OCCc1ccc(OS(C)(=O)=O)c(Cl)c1` [Example 16, (Z)-3-{3-butoxy-4-[2-(3-chloro-4-methanesulfonyloxy-phenyl)-ethoxy]-phenyl}-2-ethoxy-acrylic acid] as the molecule, how does the melting point read?
The melting point was 113 °C.

What does the source list for `CCCCOc1cc(/C=C(\OCC)C(=O)O)ccc1OCCc1ccc(OS(=O)(=O)CCCC)c(Cl)c1` [Example 17, (Z)-3-(4-{2-[4-(butane-1-sulfonyloxy)-3-chloro-phenyl]-ethoxy}-3-butoxy-phenyl)-2-ethoxy-acrylic acid]?
pKd (PPARα): 7.22; pKd (PPARδ): 6.00; pKd (PPARγ): 8.10; melting point: 80 °C

Which melting point does the source give for `CCO/C(=C\c1ccc(OCCc2ccc(OCC)cc2)c(OC)c1)C(=O)O` [Example 19, (Z)-2-ethoxy-3-{4-[2-(4-ethoxy-phenyl)-ethoxy]-3-methoxy-phenyl}-acrylic acid] here?
Its melting point is 121 °C.

For `CCCCOc1cc(/C=C(\OCC)C(=O)O)ccc1OCCc1ccc(NS(=O)(=O)CCCC)cc1` [Example 22, (Z)-3-(4-{2-[4-(butane-1-sulfonylamino)-phenyl]-ethoxy}-3-butoxy-phenyl)-2-ethoxy-acrylic acid], which melting point is on record?
Its melting point is 164 °C.

Which melting point does the source give for `CCCCOc1cc(/C=C(\OCC)C(=O)O)ccc1OCCc1ccc(N(C)S(C)(=O)=O)cc1` [Example 23, (Z)-3-(3-butoxy-4-{2-[4-(methanesulfonyl-methyl-amino)-phenyl]-ethoxy}-phenyl)-2-ethoxy-acrylic acid] here?
The melting point was 112 °C.
